From PubChem BioAssay (NCI)
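These data come from cells grown in 96-well plates and exposed to compound for 48 hours at five concentrations. Here, GI50 denotes the concentration required for 50% inhibition of growth. TGI marks complete inhibition of growth.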

What was measured:
Assay in all cases: growth of human tumour cells (NCI), 48 h
[1] = system: RXF 393 renal
[2] = system: SNB-75 CNS
[3] = system: SK-MEL-28 melanoma
[4] = system: HCT-116 colon
[5] = system: CCRF-CEM leukemia
[6] = system: MDA-MB-231 breast
[7] = system: HCT-15 colon
[8] = system: PC-3 prostate
[9] = system: HOP-92 NSCLC
[10] = system: LOX IMVI melanoma
[11] = system: KM12 colon
[12] = system: SK-MEL-2 melanoma
[13] = system: CAKI-1 renal
[14] = system: SR leukemia
[15] = system: UACC-257 melanoma
[16] = system: NCI-H226 lung
[17] = system: DU-145 prostate
[18] = system: SF-295 CNS
[19] = system: K-562 leukemia
[20] = system: A549 NSCLC
[21] = system: OVCAR-8 ovarian
[22] = system: HT29 colon
[23] = system: HCC-2998 colon
[24] = system: MOLT-4 leukemia
[25] = system: UO-31 renal
[26] = system: COLO 205 colon
[27] = system: MALME-3M melanoma
[28] = system: NCI/ADR-RES ovarian
[29] = system: SW-620 colon
[30] = system: OVCAR-5 ovarian
[31] = system: OVCAR-4 ovarian
[32] = system: BT-549 breast
[33] = system: SF-539 CNS
[34] = system: SK-MEL-5 melanoma
[35] = system: HOP-62 NSCLC
[36] = system: MCF7 breast
[37] = system: SK-OV-3 ovarian
[38] = system: NCI-H460 lung
[39] = system: TK-10 renal
[40] = system: SF-268 CNS
[41] = system: EKVX NSCLC
[42] = system: A498 renal
[43] = system: SNB-19 CNS
[44] = system: ACHN renal
[45] = system: MDA-MB-435
[46] = system: HS 578T breast
[47] = system: HL-60(TB) leukemia
[48] = system: U251 CNS
[49] = system: OVCAR-3 ovarian
[50] = system: SN12C renal
[51] = system: M14 melanoma
[52] = system: NCI-H522 lung
[53] = system: T-47D breast
[54] = system: 786-0 renal
[55] = system: IGROV1 ovarian
[56] = system: UACC-62 melanoma
[57] = system: NCI-H23 lung
[58] = system: RPMI-8226 leukemia

CC(C)(C)Nc1nc2c(OCCc3ccccc3)cccn2c1-c1ccccc1Cl gave a GI50 [1] of 9.26 µM, a TGI [1] of 22.3 µM and a GI50 [2] of 1.58 µM. It also gave a TGI [2] of 13.9 µM, a GI50 [3] of 3.45 µM and a TGI [3] of 13.1 µM. The GI50 [4] was 4.01 µM, the TGI [4] was 15.3 µM and the GI50 [5] was 3.56 µM. The TGI [5] was 16 µM, the GI50 [6] was 5.95 µM and the TGI [6] was 19 µM. It also gave a GI50 [7] of 4.12 µM, a TGI [7] of 15.9 µM and a GI50 [8] of 3.37 µM. It also gave a TGI [8] of 15.5 µM, a GI50 [9] of 2.36 µM and a TGI [9] of 7.93 µM. It also gave a GI50 [10] of 4.08 µM, a TGI [10] of 15.8 µM and a GI50 [11] of 3.58 µM. It also gave a TGI [11] of 12.4 µM, a GI50 [12] of 2.72 µM and a TGI [12] of 8.33 µM. It also gave a GI50 [13] of 5.89 µM, a TGI [13] of 20.2 µM and a GI50 [14] of 3.89 µM. The TGI [14] was 43.4 µM, the GI50 [15] was 3.52 µM and the TGI [15] was 13 µM. For the same molecule, the GI50 [16] was 3.52 µM, the TGI [16] was 16.6 µM and the GI50 [17] was 7.9 µM. It also gave a TGI [17] of 24.6 µM, a GI50 [18] of 3.19 µM and a TGI [18] of 12.6 µM. The GI50 [19] was 3.25 µM, the TGI [19] was 18.1 µM and the GI50 [20] was 4.88 µM. For the same molecule, the TGI [20] was 27.1 µM, the GI50 [21] was 4.36 µM and the TGI [21] was 20 µM. The GI50 [22] was 4.62 µM, the TGI [22] was 30.1 µM and the GI50 [23] was 3.51 µM. For the same molecule, the TGI [23] was 12.5 µM, the GI50 [24] was 3.63 µM and the TGI [24] was 17 µM. For the same molecule, the GI50 [25] was 3.2 µM, the TGI [25] was 16.8 µM and the GI50 [26] was 3.49 µM. The TGI [26] was 10.6 µM, the GI50 [27] was 2.23 µM and the TGI [27] was 5.52 µM. It also gave a GI50 [28] of 6.4 µM, a TGI [28] of 20.5 µM and a GI50 [29] of 4.91 µM. For the same molecule, the TGI [29] was 17.7 µM, the GI50 [30] was 11.9 µM and the TGI [30] was 24.7 µM. For the same molecule, the GI50 [31] was 3.61 µM, the TGI [31] was 14.9 µM and the GI50 [32] was 2.61 µM. The TGI [32] was 10.2 µM, the GI50 [33] was 10.7 µM and the TGI [33] was 22.5 µM. For the same molecule, the GI50 [34] was 2.01 µM, the TGI [34] was 4.43 µM and the GI50 [35] was 4.82 µM. It also gave a TGI [35] of 18.9 µM, a GI50 [36] of 3.35 µM and a TGI [36] of 14.7 µM. It also gave a GI50 [37] of 3.82 µM, a TGI [37] of 16.9 µM and a GI50 [38] of 3.76 µM. It also gave a TGI [38] of 13.4 µM, a GI50 [39] of 6.49 µM and a TGI [39] of 20.4 µM. The GI50 [40] was 4.52 µM, the TGI [40] was 18.8 µM and the GI50 [41] was 3.19 µM. The TGI [41] was 12.8 µM, the GI50 [42] was 11.8 µM and the TGI [42] was 24.3 µM. For the same molecule, the GI50 [43] was 3.35 µM, the TGI [43] was 13.1 µM and the GI50 [44] was 8.82 µM. It also gave a TGI [44] of 21 µM, a GI50 [45] of 3.29 µM and a TGI [45] of 11.2 µM. For the same molecule, the GI50 [46] was 4.05 µM, the TGI [46] was 21.4 µM and the GI50 [47] was 2.42 µM. For the same molecule, the TGI [47] was 5.68 µM, the GI50 [48] was 3.14 µM and the TGI [48] was 12.5 µM. It also gave a GI50 [49] of 2.93 µM, a TGI [49] of 9.75 µM and a GI50 [50] of 3.03 µM. It also gave a TGI [50] of 12.7 µM, a GI50 [51] of 3.9 µM and a TGI [51] of 15.3 µM. It also gave a GI50 [52] of 3.75 µM, a TGI [52] of 15.3 µM and a GI50 [53] of 2.35 µM. It also gave a TGI [53] of 17.1 µM, a GI50 [54] of 4.84 µM and a TGI [54] of 18.1 µM. For the same molecule, the GI50 [55] was 5.05 µM, the TGI [55] was 17.8 µM and the GI50 [56] was 2.22 µM. It also gave a TGI [56] of 6.55 µM, a GI50 [57] of 3.67 µM and a TGI [57] of 13.8 µM. The GI50 [58] was 2.78 µM and the TGI [58] was 7.5 µM.
